Measured values from patent publication US20070249729A1, “Method of Treating Elevated Plasma Homocysteine Levels in Esrd Patients” (priority 2003, published 2007).
“And” between values parts separate entries of the source, which are not always exact repeats. Equal values may be shown once.

Key:
[1] = Tolerability of Mesna in ESRD hemodialysis patients; assay type: in vivo, human
Method: To assess baseline total plasma Hcy concentrations, 5 ml blood samples (EDTA) were drawn pre- and post-dialysis for all 7 dialysis sessions during the 14 day study period. On day 5 (corresponding to the third dialysis session) blood samples were also drawn at various times throughout the dialysis treatment (0.5, 1.0, 2.0 and 3.0 hours) to determine baseline kinetic data. Undiluted ultrafiltrate was obtained from 2 patients by stopping the dialysate flow while maintaining the patient on ultrafiltration. Once 200 ml of dialysate had been displaced from the dialyzer, an undiluted ultrafiltrate sample was drawn from a port specially installed for the study. On the treatment day (a mid-week dialysis session corresponding to day 7 of the study), a single 5 mg/kg dose of Mesna was infused directly into the venous return on the dialysis machine over 5 minutes. Blood samples were drawn pre-dialysis, 4 minutes after Mesna administration, 0.5, 1.0, 2.0, 3.0 hours and post-dialysis. Undiluted ultrafiltrate was also collected from 2 of the patients as described above. Pre- and post-dialysis blood samples were also drawn on each of the 3 subsequent dialysis treatments (corresponding to days 9, 12 and 14) to determine the duration of Mesna's action and how long it remains in the blood. All blood samples were immediately placed on ice and centrifuged within 30 minutes at 1500×g for 10 minutes. […]

[2] = cited from earlier work
protein bound Hcy = protein bound Hcy (Homo sapiens, UniProt P02768); test: In vitro thiol exchange assay (free dialyzable Hcy in plasma/serum); conditions: for AUC of free Hcy vs time: 300 μM, plasma of healthy subjects, n=6, mean +/-SE
Method: To determine the efficacy of Mesna in vitro a thiol exchange assay was developed. This assay evaluates the ability of thiol-containing drugs to exchange with protein bound Hcy and other thiols yielding a larger free, dialyzable fraction of Hcy. 60 mL of blood was drawn from 6 healthy subjects and plasma was obtained by centrifugation at 1500×g. D,L Homocysteine was then added to each plasma sample to a final concentration of 30 μM. The samples were allowed to equilibrate at 4° C. for 72 hours to allow covalent, disulfide bonding of Hcy to plasma proteins. To conduct each assay, 380 μL of the aforementioned plasma was pipetted into a 1.7 mL polypropylene snap-cap tube. 20 uL of Mesna (diluted in 4 mM ethylenediaminetetraacetic acid disodium salt (EDTA), pH=7) was then added to the sample to final concentrations ranging from 0 μM (EDTA vehicle) to 10 000 μM. The sample was incubated for 30 minutes at 37° C. 50 μL aliquots were removed at 0, 2, 5, 10, 15 and 30 at which time plasma proteins were precipitated with 25 μL of 15% sulphosalicylic acid. […] Results for each concentration of Mesna are mean +/−SE, n=6.
Numerous compounds that may modulate protein binding and thiol exchange accumulate in the serum of patients with end-stage renal disease (ESRD). To verify that none of these compounds alter Mesna's exchange with protein bound Hcy, a single concentration of Mesna (300 μM) was tested in a thiol exchange assay (described in Example 4) in serum from patients with ESRD or healthy controls.
The in vitro thiol exchange potential of Mesna was compared with another thiol-containing drug, n-acetylcysteine (NAC) by the thiol exchange assay described in Example 4. 300 μM NAC was compared with 150 and 300 μM Mesna in the plasma of healthy subjects.

plasma tHcy = conditions: oral, 4 weeks of treatment, patients on hemodialysis; cited from earlier work
[3] = isolated perfused rat liver; cited from earlier work
[4] = system: plasma tHcy, fractional excretion of Hcy; test: Oral Mesna, Hcy clearance in 2 subjects with normal kidney function; assay type: in vivo, human
Method: The effect of oral Mesna on Hcy clearance was also evaluated in 2 subjects with normal kidney function. The subjects fluid loaded by consuming 2 L of water the morning of the study day. An indwelling catheter was inserted into an appropriate arm vein. At the beginning of the study subjects were asked to void urine and 2×5 mL blood samples were drawn for analysis of tHcy and creatinine. Subsequent blood samples were drawn at 0.5, 1.0 and 1.5 hours for determination of baseline tHcy and creatinine. At these times subjects were also asked to void urine for measurement of urinary tHcy, creatinine and urine volume. Subjects were then given a 10 mg/kg oral dose of Mesna. One hour after the dose, subjects were asked to void their urine and 2×5 mL blood samples were drawn for determination of tHcy and creatinine. At 1.5, 2.0, and 2.5 hours after Mesna, blood samples were drawn for tHcy and creatinine analysis. Urine was also collected at these times for determination of urinary Hcy, creatinine and urinary volume. A final blood sample was drawn 4 hours after administration of Mesna. Mesna caused a slow, small (1.5 μM) decrease in plasma tHcy concentration in both subjects (see FIG. 14). Mesna was detectable in plasma however, maximum concentration (mean 88.6 μM) was less than the 5 mg/kg administered intravenously to dialysis patients (FIG. 15). The fractional excretion of Hcy ([CLHcy/CLCreat]*100) was assessed in the presence and absence of Mesna (see FIG. 16). In the absence of Mesna the fractional excretion of Hcy was only 0.1%. When Mesna was administered the fractional Hcy excretion raised 60 fold to 6.0%.

plasma Hcy = conditions: iv Mesna for 5 days, cancer chemotherapy patients, from 12.3 μmol/L; cited from earlier work
[5] = system: total plasma Hcy and cysteine; test: In vivo pilot study, 3 ESRD hemodialysis patients, single iv Mesna: intra-dialytic plasma tHcy and cysteine; parameters: species or system human
Description: 3 vitamin supplemented ([…], Landmark Medical Systems Inc. Unionville, Ontario) maintenance hemodialysis patients (2 males, 1 female) were recruited from the dialysis unit at London Health Sciences Centre-University Campus. Inclusion criteria were any vitamin supplemented patients on thrice weekly hemodialysis for at least 90 days who were willing to sign a letter of informed consent. Patients were excluded from the study if they had serum albumin≦30 g/L. The study protocol was approved by the human subject research ethics board at the University of Western Ontario. Patients were dialyzed with Fresenius Optiflux hollow fiber dialyzers (Fresenius AG, Bad Homburg, Germany). […] On day 5 (corresponding to the third dialysis session) blood samples were also drawn at various times throughout the dialysis treatment (0.5, 1.0, 2.0 and 3.0 hours) to determine baseline kinetic data. Undiluted ultrafiltrate was obtained from 2 patients by stopping the dialysate flow while maintaining the patient on ultrafiltration. Once 200 ml of dialysate had been displaced from the dialyzer, an undiluted ultrafiltrate sample was drawn from a port specially installed for the study. On the treatment day (a mid-week dialysis session corresponding to day 7 of the study), a single 5 mg/kg dose of Mesna was infused directly into the venous return on the dialysis machine over 5 minutes. […] Undiluted ultrafiltrate was also collected from 2 of the patients as described above. Pre- and post-dialysis blood samples were also drawn on each of the 3 subsequent dialysis treatments (corresponding to days 9, 12 and 14) to determine the duration of Mesna's action and how long it remains in the blood. […] Plasma and ultrafiltrate were stored at -20° C. until analysis. […] Results are shown as mean +/-SD. Intra-dialytic changes in tHcy and cysteine concentrations were analyzed by a paired students t-test.

[6] = Intra-dialytic Mesna kinetics in 3 ESRD hemodialysis patients; assay type: in vivo, human
Method: To assess baseline total plasma Hcy concentrations, 5 ml blood samples (EDTA) were drawn pre- and post-dialysis for all 7 dialysis sessions during the 14 day study period. On day 5 (corresponding to the third dialysis session) blood samples were also drawn at various times throughout the dialysis treatment (0.5, 1.0, 2.0 and 3.0 hours) to determine baseline kinetic data. Undiluted ultrafiltrate was obtained from 2 patients by stopping the dialysate flow while maintaining the patient on ultrafiltration. Once 200 ml of dialysate had been displaced from the dialyzer, an undiluted ultrafiltrate sample was drawn from a port specially installed for the study. On the treatment day (a mid-week dialysis session corresponding to day 7 of the study), a single 5 mg/kg dose of Mesna was infused directly into the venous return on the dialysis machine over 5 minutes. Blood samples were drawn pre-dialysis, 4 minutes after Mesna administration, 0.5, 1.0, 2.0, 3.0 hours and post-dialysis. Undiluted ultrafiltrate was also collected from 2 of the patients as described above. Pre- and post-dialysis blood samples were also drawn on each of the 3 subsequent dialysis treatments (corresponding to days 9, 12 and 14) to determine the duration of Mesna's action and how long it remains in the blood. All blood samples were immediately placed on ice and centrifuged within 30 minutes at 1500×g for 10 minutes. Plasma and ultrafiltrate were stored at −20° C. until analysis.
Therefore, the inventors modified the chromoatographic conditions such that 4% acetonitrile was run for 7 minutes and then a gradient of 4% to 70% acetonitrile was used from 7 to 20 minutes.

plasma tHcy and cysteine = test: Single dose pilot study, 5 maintenance hemodialysis patients: plasma and dialysate tHcy and cysteine; assay type: in vivo, human
Method: Blood samples were drawn at selected intervals during a mid-week dialysis session during which no Mesna was given. One week later, subjects received a single, 5 mg/kg, pre-dialysis, intravenous dose of Mesna and blood samples were drawn throughout the dialysis session. Dialysate samples were also collected from 2 patients. […] A pre-dialysis plasma sample was also drawn before the next dialysis session 2 days later.

[7] = human, in vivo
Method: To evaluate the in vivo effect of Mesna on plasma tHcy, 5 maintenance hemodialysis patients were recruited to participate in a single dose pilot study. Blood samples were drawn at selected intervals during a mid-week dialysis session during which no Mesna was given. One week later, subjects received a single, 5 mg/kg, pre-dialysis, intravenous dose of Mesna and blood samples were drawn throughout the dialysis session. Dialysate samples were also collected from 2 patients. Total Hcy and cysteine were measured in plasma and dialysate by the modified method of Jacobsen et al.^20 Mesna caused a profound, rapid decrease in plasma tHcy and cysteine (see FIG. 11 and 12). […] A pre-dialysis plasma sample was also drawn before the next dialysis session 2 days later. Plasma tHcy was 2.3 μM lower with Mesna than control (P=0.047) indicating a residual effect of Mesna on tHcy concentrations.
Concentrations of Mesna were also measured in plasma (n=5) and dialysate (n=2) (see FIG. 13).

albumin bound Hcy = albumin bound Hcy (Homo sapiens, UniProt P02768); conditions: 305 μmol/L Mesna
Method: Plasma was supplemented with reduced homocysteine (30 μmol/L) and allowed to equilibrate with protein and endogenous thiols for 72 hours. Mesna or diluent (control) was then added to the plasma and incubated at 37° C. for 15 minutes. 1 ml of plasma was pipetted into a micropartition device and centrifuged at 1500×g for 10 minutes. Free (dialyzable) Hcy was then determined in the ultrafiltrate.
30 ml of blood (EDTA) was obtained from a healthy subject with normal renal function. The blood was immediately centrifuged at 1500×g and the plasma was separated. D,L Homocysteine was then added to the plasma to a final concentration of 30 μmol/L. The sample was incubated at 4° C. for 72 hours to allow the homocysteine to covalently bind to protein and other thiols. Mesna was added to 1 ml of plasma to a final concentration of 305 μmol/L. An equal volume of diluent was added to 1 ml of plasma as a control. The plasma (1 ml) was then incubated at 37° C. for 15 minutes after which it was pipetted into an Amicon (Amicon Canada, Oakville, Ontario) type YMT micropartition system for separation of free from protein bound solutes. The micropartition system was centrifuged at 1500 X g for 10 minutes and the ultrafiltrate obtained was stored at −20° C. until analysis.
Total plasma Hcy and other low molecular weight thiols were measured by HPLC-FD after pre-column derivitization as described by Jacobsen et al.^20 Briefly, disulfide bonds were reduced with 1.43 M sodium borohydride. Excess reducing agent was consumed by the addition of 1.2 M HCl after which thiols were derivitized with monobromobimane. Protein was precipitated with 1.5 M perchloric acid and the sample pH was raised to ˜3.5 with a solution of 2M citrate and 10 N NaOH.
Thiol amino acids were separated on a Waters Nova-Pak C18 (150×3.9 mm, 5μ) column. The mobile phase consisted of 4% acetonitrile/25 mM ammonium formate buffer, pH=3.8. Since Mesna is also a low molecular weight thiol it can also be measured as a bimane derivative, although it is very late eluting when the above mentioned chromatographic conditions are used. […]

[8] = single 5 mg/kg pre-dialysis iv dose, n=5

protein bound Hcy, sequence (P02768 25-609): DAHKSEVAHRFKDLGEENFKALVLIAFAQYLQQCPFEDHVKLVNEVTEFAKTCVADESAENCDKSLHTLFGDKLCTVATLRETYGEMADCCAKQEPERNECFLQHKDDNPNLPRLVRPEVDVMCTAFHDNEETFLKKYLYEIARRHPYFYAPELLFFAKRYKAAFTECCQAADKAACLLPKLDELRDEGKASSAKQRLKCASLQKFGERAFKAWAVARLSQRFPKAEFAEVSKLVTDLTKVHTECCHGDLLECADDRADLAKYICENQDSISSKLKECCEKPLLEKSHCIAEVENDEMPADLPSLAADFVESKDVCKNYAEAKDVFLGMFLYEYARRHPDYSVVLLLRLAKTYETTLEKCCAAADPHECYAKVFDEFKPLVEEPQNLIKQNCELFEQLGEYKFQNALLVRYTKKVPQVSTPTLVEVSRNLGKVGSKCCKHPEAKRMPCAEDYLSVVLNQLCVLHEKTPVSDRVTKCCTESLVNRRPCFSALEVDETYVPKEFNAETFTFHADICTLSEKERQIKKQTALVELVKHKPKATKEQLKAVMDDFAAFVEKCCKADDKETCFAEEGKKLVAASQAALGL
albumin bound Hcy, sequence (P02768 25-609): as above

## CN(C)CCOC(c1ccccc1)c1ccccc1.Cn1c(=O)c2[nH]c(Cl)nc2n(C)c1=O [dimenhydrinate]
[1]; administration of dimenhydrinate to patients with Mesna-associated nausea
  time to reversal of nausea symptoms: ≤ 1 min

## N[C@@H](CCS)C(=O)O [homocysteine]
[2]
  pKa of the thiol: 8.7

## N[C@@H](CS)C(=O)O [cysteine]
[2]
  pKa of the thiol: 8.15

## CC(=O)N[C@@H](CS)C(=O)O [NAC, n-acetylcysteine]
Protein bound Hcy
  AUC of free Hcy vs time: 642+/−49.7
Plasma tHcy
  effect on pre-dialysis plasma tHcy: small, non-significant decrease

## O=S(=O)([O-])CCSSCCS(=O)(=O)[O-].[Na+].[Na+] [diMesna, Mesna disulfide]
[3]
  metabolic reduction: reduce diMesna to Mesna

## O=S(=O)(O)CCS.[Na] [Mesna, sodium 2-mercaptoethane sulfonic acid]
[1]; 5 mg/kg iv, two of 3 patients
  tolerability, side effect: mild nausea
Protein bound Hcy; 0 to 10 000 μM Mesna, plasma spiked 30 μM Hcy, n=6
  effect on fraction of free dialyzable Hcy: concentration dependent increase
Protein bound Hcy; 300 μM Mesna, P>0.05
  AUC of thiol exchange, ESRD serum vs. healthy controls: no significant difference
Protein bound Hcy
  AUC of free Hcy vs time: 1023+/−86.0
Protein bound Hcy; further in vitro studies with plasma
  time to maximal thiol exchange after Mesna addition: ≤ 2 min
[2]
  pKa of the thiol: 9.1
[4]; 10 mg/kg oral dose vs absence of Mesna
  rise of fractional Hcy excretion: 60 fold
[4]; 10 mg/kg oral dose, 2 subjects with normal kidney function
  decrease in plasma tHcy concentration: 1.5 µM
[4]; 10 mg/kg oral dose, normal kidney function
  fractional excretion of Hcy ([CLHcy/CLCreat]*100): 6.0%
Plasma Hcy
  plasma Hcy after Mesna: 1.4 µmol/L
[5]; 5 mg/kg iv, 3 patients, p=0.009
  effect on post-dialysis cysteine: significant decrease
[5]; 5 mg/kg iv, 3 patients, p=0.035
  effect on post-dialysis tHcy: significant decrease
[5]; day 12, all patients
  pre-dialysis plasma Hcy at second cycle after Mesna: returned to baseline
[5]; intravenous Mesna, human subjects
  time to decrease of total plasma homocysteine after administration: ≤ 30 min
[5]; patient 1
  decrease in pre-dialysis plasma tHcy, day 9 vs day 7: 3.7 µmol/L
[5]; patient 2
  decrease in pre-dialysis plasma tHcy, day 9 vs day 7: 1.1 µmol/L
[5]; patient 3
  decrease in pre-dialysis plasma tHcy, day 9 vs day 7: 3.1 µmol/L
[5]; single iv 5 mg/kg Mesna, 3 ESRD patients
  post-dialysis tHcy concentration: 10.1 µmol/L
[5]; single iv 5 mg/kg dose during dialysis
  additional decrease of total plasma Hcy compared to dialysis alone: 29%
[5]; undiluted ultrafiltrate, 2 patients
  UF Hcy following Mesna treatment: No increase
[6]; human, plasma, intravenous, 5 mg/kg, end of the study period (day 14)
  concentration at 14 study day: 13.4 µM
[6]; human, plasma, shortly after administration, 5 mg/kg iv, 3 patients
  concentration at 4 min: 296 µM
[6]; post-dialysis, 5 mg/kg iv, 3 patients
  plasma Mesna concentration: 89.7 ± 32.5 µmol/L
[6]; second patient, ~3.5 hours after administration, at onset of nausea
  plasma Mesna concentration: ~60 µmol/L
Plasma tHcy and cysteine; n=2
  dialysate Hcy with Mesna compared to control: slight increase
Plasma tHcy and cysteine; next dialysis session 2 days later, P=0.047
  pre-dialysis plasma tHcy lower with Mesna than control: 2.3 µM
Plasma tHcy and cysteine; [8]
  post-dialysis plasma cysteine: 165.1 ± 7.4 µM
  post-dialysis plasma tHcy: 11.6 ± 1.7 µM
[7]
  elimination during dialysis: first order elimination
Albumin bound Hcy; 15 minute incubation
  free Hcy as % of the total plasma Hcy: 27.2% and 27%
Albumin bound Hcy; 15 minute incubation at 37° C., plasma spiked with 30 μmol/L Hcy
  Hcy in the free dialyzable form (ultrafiltrate): 8.2 µmol/L
